Test results reported in the supplement of paper PMC10307832.

Experiments:
Experiment in all cases: relative viability (nuclei count vs DMSO), 5 days (fraction); higher = more cells survive
[1] = compound: CC1CC(=O)N(C2=CN=C(N=C2N1C3CCCC3)NC4=C(C=C(C=C4)C(=O)NC5CCN(CC5)C)OC)C [NPK76-II-72-1] + CC(=O)c1c(C)c2cnc(Nc3ccc(N4CCNCC4)cn3)nc2n(C2CCCC2)c1=O [Palbociclib] (partner 0.5 µM)
Summary of the method: (§1)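 Dosing by pin tool came one day after lung cancer cell lines were seeded in 1536-well plates, using either one drug or a fixed anchor-drug dose plus five library-drug doses (not always all listed) in √10 steps. After 5 days, nuclei were counted on 4× images. Relative viability is treated-well nuclei count divided by vehicle-well nuclei count, and values are medians of duplicate plates.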

NPK76-II-72-1 + Olaparib = compound: CC1CC(=O)N(C2=CN=C(N=C2N1C3CCCC3)NC4=C(C=C(C=C4)C(=O)NC5CCN(CC5)C)OC)C [NPK76-II-72-1] + O=C(c1cc(Cc2n[nH]c(=O)c3ccccc23)ccc1F)N1CCN(C(=O)C2CC2)CC1 [Olaparib] (partner 8 µM)
Summary of the method: as §1

BI-2536 + Crizotinib = compound: CC[C@@H]1C(=O)N(C)c2cnc(Nc3ccc(C(=O)NC4CCN(C)CC4)cc3OC)nc2N1C1CCCC1 [BI-2536] + C[C@@H](Oc1cc(-c2cnn(C3CCNCC3)c2)cnc1N)c1c(Cl)ccc(F)c1Cl [Crizotinib] (partner 1 µM)
Summary of the method: as §1

[2] = compound: CC1CC(=O)N(C2=CN=C(N=C2N1C3CCCC3)NC4=C(C=C(C=C4)C(=O)NC5CCN(CC5)C)OC)C [NPK76-II-72-1] + C[C@]1(O)C[C@@H](c2nc(-c3ccc4ccc(-c5ccccc5)nc4c3)c3c(N)nccn32)C1 [Linsitinib] (partner 1 µM)
Summary of the method: as §1

## UMC-11
[1]; first compound 0.01 µM
  relative viability: 0.301
[1]; first compound 0.03162 µM
  relative viability: 0.326
[1]; first compound 0.1 µM
  relative viability: 0.265
[1]; first compound 0.3162 µM
  relative viability: 0.355
[1]; first compound 1 µM
  relative viability: 0.355
NPK76-II-72-1 + Olaparib; first compound 0.01 µM
  relative viability: 0.381
NPK76-II-72-1 + Olaparib; first compound 0.03162 µM
  relative viability: 0.339
NPK76-II-72-1 + Olaparib; first compound 0.1 µM
  relative viability: 0.386
NPK76-II-72-1 + Olaparib; first compound 0.3162 µM
  relative viability: 0.358
NPK76-II-72-1 + Olaparib; first compound 1 µM
  relative viability: 0.403
BI-2536 + Crizotinib; first compound 0.01 µM
  relative viability: 0.48
BI-2536 + Crizotinib; first compound 0.03162 µM
  relative viability: 0.237
BI-2536 + Crizotinib; first compound 0.1 µM
  relative viability: 0.148
BI-2536 + Crizotinib; first compound 0.3162 µM
  relative viability: 0.133
BI-2536 + Crizotinib; first compound 1 µM
  relative viability: 0.1
[2]; first compound 0.01 µM
  relative viability: 1
[2]; first compound 0.03162 µM
  relative viability: 1.08
[2]; first compound 0.1 µM
  relative viability: 1
[2]; first compound 0.3162 µM
  relative viability: 0.927
[2]; first compound 1 µM
  relative viability: 0.976
